The subject of data set [1] is Babesia. The conditions noted are these: McColm 1984; cited from earlier work.
Data set [2] concerns biosynthesis of phosphatidylcholine. The data set is described as follows: Specificity towards phosphatidylcholine biosynthesis relative to other macromolecules (radiolabelled precursor incorporation). The format is cell-based. The conditions noted are these: relative to nucleic acids, proteins, other phospholipids. The method, then:
Verification of the mechanism of action is carried out on the various derivatives according to the invention by studying the specific interference with phospholipid biosynthesis and measuring the biosynthesis of the different biomolecules, nucleic acids, proteins and phospholipids, on the basis of the incorporation of radiolabelled precursors, [^3 H]hypoxanthine (see above), [^3 H]isoleucine and [^3 H]choline. The specificity in the precise realm of phospholipid metabolism is determined by comparison with the effect on the incorporation of [^3 H]ethanolamine into phosphatidylethanolamine (Ancelin M. L., Vialettes F. and Vial H. J., 1991, Anal. Biochem., 199, 203-209).

Data set [3] has as its system Plasmodium vinckei, petteri or chabaudi. Nature of the data set: Antimalarial activity in vivo, infected mice, 4 days. On the set-up: species or system petteri or chabaudi (male Swiss mice). The conditions noted are these: ip, I.P., twice daily for 4 consecutive days. The method, then:
This activity is measured according to the test described by PETERS W. (Chemotherapy and Drug resistance in Malaria, 1970). A compound according to the invention is administered for 4 consecutive days to mice infected beforehand with malaria using Plasmodium vinckei, petteri or chabaudi.
The said compound is dissolved in 0.9% aqueous NaCl solution or, where appropriate, in 10% aqueous gum arabic solution. The preparations are thus administered intraperitoneally or subcutaneously to male Swiss mice of average weight 30 to 40 g which have been infected beforehand intravenously with Plasmodium petterei or P. chabaudi (10^6 infected cells). The compound is administered twice daily for 4 consecutive days, the first injection being performed 2 hours after infestation, and the second 10 hours after. The parasitaemia is determined by means of a smear on the day following the end of the treatment.
The results are collated in Table II, in the form of an ED50 (dose of compound administered in vivo capable of a 50% inhibition of the growth of the parasites).

Another data set deals with Plasmodium falciparum. Nature of the data set: Antimalarial activity in vitro towards Plasmodium falciparum ([3H]hypoxanthine incorporation, infected human erythrocytes). The format is cell-based. The conditions noted are these: Erythrocyte, approximately 48 hours; for IC50 upper bound (active at tested concentration): Table I. On the procedure:
Evaluation of the antimalarial activity in vitro is carried out according to the method of DESJARDINS, CANFIELD, HATNES and CHULAY (Antimicrob. Agents Chemother., 1979, 16, 710-718). A compound according to the invention is brought into contact for approximately 48 hours with human erythrocytes infected with Plasmodium falciparum. When a radioactive nucleic acid precursor, hypoxanthine, is added to the preparation, only erythrocytes infected with Plasmodium and not affected by the said compound incorporate this precursor. […] The results are presented in Table I below, in the form of an IC50 (or ED50) (concentration of compound capable of inhibiting in vitro the growth of the parasites by 50%).
The derivatives according to the above examples are tested at three concentrations, 100, 33 and 10 nanomolar.

A short description of data set [4]: Semi-chronic toxicity in vivo. The conditions noted are these: mouse, mice.
Data set [5] concerns Babesia. The conditions noted are these: cited from earlier work.
The subject of data set [6] is Babesia. The conditions noted are these: cited from earlier work. The source holds these as a separate data set.
The conditions of data set [7]: cited from earlier work.
For data set [8] the following is noted: cited from earlier work. The source holds these as a separate data set.

These results are taken from patent US5834491A, “Bis(2-aminopyridine)s, preparation method therefor and use thereof for controlling parasitic infections” (priority 1994, dated 1998).

Counter-ions that a name gives are not always drawn. Like-named read-outs stand apart in the source and are kept apart here. Where only a bound is given, the exact number is not on record here.

For the molecule gramicidin D, the “resistance of Babesia” value in the data set with Babesia [1] is reported as “increased resistance”.

Usually ED50 stands for the dose that gives a 50% effect, or the effect in half of the subjects. High values mean weaker potency, low ones greater potency. The term IC50 denotes the concentration at which inhibition is half-maximal. Read a high IC50 as weaker potency in that assay. What is called LD50 is the dose expected to kill half of the subjects tested. For `Cc1ccn(CCCCCCCCCCCCn2ccc(C)cc2=N)c(=N)c1` [Example 1, 1,1'-(1,12-dodecanediyl)bis(4-methyl-2(1H)-pyridinimine) dihydrobromide], in data set [2], the “specificity of action towards the biosynthesis of phosphatidylcholine, relative to the biosyntheses of the other macromolecules” value is reported as “best specificity of action towards the biosynthesis of phosphatidylcholine”. The molecule also registered an ED50 in [3] of 1.2 mg/kg. The IC50 upper bound (active at tested concentration) is below 33 nM in the data set on Plasmodium falciparum (33 nM, read-out: Plasmodium IC50 in vitro resp. at 33 nM) and below 100 nM with Plasmodium falciparum (100 nM, read-out: Plasmodium IC50 in vitro resp. 100 nM). For the same molecule, the IC50 in the data set with Plasmodium falciparum (Table II) amounted to 0.5 nM. The LD50 stood at 30 mg/kg in [4] (ip, I.P., 2 injections daily for four days, read-out: Toxicity LD50 I.P.) and 365 mg/kg in [4] (po, P.O., semi-chronic, four days, read-out: Toxicity LD50 P.O.).

Turning to `Nc1ncnc2c1ccn2[C@@H]1O[C@H](CO)[C@@H](O)[C@H]1O` [tubercidin], in the data set on Babesia [5], the “activity in vitro against Babesia” value was “active in vitro”. The “results in vivo against Babesia” value in the data set on Babesia [6] is on record as “without, however, giving good results in vivo”.

In the case of `CN(C)C1C(=O)C(C(N)=O)=C(O)C2(O)C(=O)C3=C(O)c4c(O)cccc4C(C)(O)C3CC12` (stereo not shown) [tetracycline], in the data set with Babesia [5], the “activity in vitro against Babesia” value is recorded as “active in vitro”. For the same molecule, the “results in vivo against Babesia” value with Babesia [6] is given as “without, however, giving good results in vivo”.

`C[C@H]1[C@@H](O)O[C@@H]2O[C@@]3(C)CC[C@H]4[C@H](C)CC[C@@H]1[C@@]24OO3` [dihydroartemisinine]: in data set [7], the half-life result was “short half-life”. Also, the water-solubility result in [8] is reported as “low water-solubility”.

Consider `O=C1C(O)=C(CCCCCCCCC2CCCCC2)C(=O)c2ccccc21` [menoctone], for which the “activity in vitro against Babesia” value in the data set with Babesia [5] is recorded as “active in vitro”. The “results in vivo against Babesia” value with Babesia [6] was “without, however, giving good results in vivo”.

With `CO[C@H]1O[C@@H]2O[C@@]3(C)CC[C@H]4[C@H](C)CC[C@@H]([C@H]1C)[C@@]24OO3` [artemether], the half-life result in data set [7] is on record as “short half-life”. Besides, the water-solubility result in data set [8] is “low water-solubility”.

`C[C@H]1[C@H](OC(=O)CCC(=O)O)O[C@@H]2O[C@@]3(C)CC[C@H]4[C@H](C)CC[C@@H]1[C@@]24OO3` [artesunate]: the half-life result in data set [7] is “short half-life”. Also, the water-solubility entry in [8] is recorded as “low water-solubility”.

`CO[C@H]1/C=C/O[C@@]2(C)Oc3c(C)c(O)c4c(O)c(cc(O)c4c3C2=O)NC(=O)/C(C)=C\C=C\[C@H](C)[C@H](O)[C@@H](C)[C@@H](O)[C@@H](C)[C@H](OC(C)=O)[C@@H]1C` [rifamycin]: the “resistance of Babesia” value in the data set with Babesia [1] is “increased resistance”.

With `CC[C@H]1OC(=O)C[C@@H](O)[C@H](C)[C@@H](O[C@@H]2O[C@H](C)[C@@H](O[C@H]3C[C@@](C)(O)[C@@H](O)[C@H](C)O3)[C@H](N(C)C)[C@H]2O)[C@@H](CC=O)C[C@@H](C)C(=O)/C=C/C(C)=C/[C@@H]1CO[C@@H]1O[C@H](C)[C@@H](O)[C@@H](OC)[C@H]1OC` [tylosin], the “resistance of Babesia” value in the data set with Babesia [1] is given as “increased resistance”.
